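A five-concentration, 48-hour dose response in 96-well plates underlies each endpoint, interpolated linearly between surrounding concentrations. At the GI50, growth is halved.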 Active and inactive are the calls of the source. Rule as the data show it: active = GI50 up to about 1.1 µM and inactive = higher.
How the values were obtained:
Test in all cases: growth of human tumour cells (NCI), 48 h
SF-539 = test system: SF-539
786-0 = test system: 786-0
MOLT-4 = test system: MOLT-4
UACC-62 = test system: UACC-62
NCI-H23 = test system: NCI-H23
SNB-19 = test system: SNB-19
HT-29 = test system: HT-29
KM12 = test system: KM12
DU-145 = test system: DU-145
Hs-578T = test system: Hs-578T
SF-268 = test system: SF-268
OVCAR-3 = test system: OVCAR-3
MCF7 = test system: MCF7
TK-10 = test system: TK-10
HCC 2998 = test system: HCC 2998
OVCAR-4 = test system: OVCAR-4
SNB-75 = test system: SNB-75
NCI-H522 = test system: NCI-H522
Malme-3M = test system: Malme-3M
RXF 393 = test system: RXF 393

Compound | GI50 (SF-539) | GI50 (786-0) | GI50 (MOLT-4) | GI50 (UACC-62) | GI50 (NCI-H23) | GI50 (SNB-19) | GI50 (HT-29) | GI50 (KM12) | GI50 (DU-145) | GI50 (Hs-578T) | GI50 (SF-268) | GI50 (OVCAR-3) | GI50 (MCF7) | GI50 (TK-10) | GI50 (HCC 2998) | GI50 (OVCAR-4) | GI50 (SNB-75) | GI50 (NCI-H522) | GI50 (Malme-3M) | GI50 (RXF 393)
Cc1ccsc1C(=S)Nc1ccc(Cl)c(C(=O)OC(C(C)C)C(C)C)c1 | 39.6 µM (inactive) | 19.8 µM (inactive) | 5.51 µM (inactive) | 21 µM (inactive) | 13.5 µM (inactive) | 25.5 µM (inactive) | 17.4 µM (inactive) | 20 µM (inactive) | 33 µM (inactive) | 39.4 µM (inactive) | 40.8 µM (inactive) | 14 µM (inactive) | 16.1 µM (inactive) | 38.1 µM (inactive) | 16.1 µM (inactive) | 29.1 µM (inactive) | 24 µM (inactive) | 11.4 µM (inactive) |  | 
NNS(=O)(=O)c1ccc(/C=C2\NC(=O)NC2=O)cc1 |  | > 100 µM (inactive) | > 100 µM (inactive) | > 100 µM (inactive) | > 100 µM (inactive) | > 100 µM (inactive) | > 100 µM (inactive) | > 100 µM (inactive) | > 100 µM (inactive) | > 100 µM (inactive) | > 100 µM (inactive) | > 100 µM (inactive) | > 100 µM (inactive) | > 100 µM (inactive) | > 100 µM (inactive) | > 100 µM (inactive) | > 100 µM (inactive) |  | > 100 µM (inactive) | 
NC1=NC2(COC(c3ccccc3)(c3ccccc3)c3ccccc3)OC(COC(c3ccccc3)(c3ccccc3)c3ccccc3)C(O)C2O1 (stereo not drawn) | 71.6 µM (inactive) | > 100 µM (inactive) | 13.2 µM (inactive) | 27.6 µM (inactive) | 23.1 µM (inactive) | 23 µM (inactive) | 65 µM (inactive) | 21.6 µM (inactive) | > 100 µM (inactive) | 0.258 µM (active) |  | > 100 µM (inactive) | > 100 µM (inactive) | 18.9 µM (inactive) |  |  | < 0.01 µM (active) | 52.5 µM (inactive) | 18.4 µM (inactive) | 66.5 µM (inactive)
CCCC(=O)OCC1OC(n2cc(F)c(=O)[nH]c2=O)CC1OC(=O)CCC (stereo not drawn) | 0.00511 µM (active) | 0.434 µM (active) | 4.63 µM (inactive) | 0.177 µM (active) | 0.278 µM (active) |  |  | > 5.02 µM (inactive) | 0.156 µM (active) | 2.32 µM (inactive) | 0.0368 µM (active) | 1.67 µM (inactive) | 0.0169 µM (active) | 2.25 µM (inactive) | 0.0113 µM (active) | > 10 µM (inactive) |  | 5.22 µM (inactive) | > 6.43 µM (inactive) | > 9.2 µM (inactive)
C[N+](C)(C)CC(=O)N/N=C/c1ccncc1 | > 100 µM (inactive) | > 100 µM (inactive) | > 100 µM (inactive) | > 100 µM (inactive) | > 100 µM (inactive) | > 100 µM (inactive) | > 100 µM (inactive) | > 100 µM (inactive) | > 100 µM (inactive) | > 100 µM (inactive) | > 100 µM (inactive) | > 100 µM (inactive) | > 100 µM (inactive) | > 100 µM (inactive) |  | > 100 µM (inactive) | > 100 µM (inactive) | > 100 µM (inactive) | > 100 µM (inactive) | > 100 µM (inactive)
O=C1CCCC1CN1CCCC1 (stereo not drawn) | 18.8 µM (inactive) | 5.22 µM (inactive) | 0.206 µM (active) | 17.7 µM (inactive) | 15.3 µM (inactive) | > 100 µM (inactive) | 23.2 µM (inactive) | 16.1 µM (inactive) | 30.5 µM (inactive) | 22.2 µM (inactive) | 21.6 µM (inactive) | 14.2 µM (inactive) | 2.2 µM (inactive) | 12.5 µM (inactive) | > 45.2 µM (inactive) | 1.93 µM (inactive) | 17.1 µM (inactive) | < 0.0275 µM (active) | 2.04 µM (inactive) | 
CC(C)Nc1[nH]c(C(=O)c2ccccc2)c(N)c1C(=S)Nc1ccccc1 | > 100 µM (inactive) | 36.5 µM (inactive) | 80.9 µM (inactive) | 16.9 µM (inactive) | > 100 µM (inactive) | > 100 µM (inactive) | 27.9 µM (inactive) | 31.7 µM (inactive) | > 100 µM (inactive) | 86.1 µM (inactive) | 67.8 µM (inactive) | > 100 µM (inactive) | 40.4 µM (inactive) | 57.1 µM (inactive) | 21.8 µM (inactive) | 71.9 µM (inactive) | 69.3 µM (inactive) | 63.8 µM (inactive) | 19.3 µM (inactive) | 
CCOC(=O)C1(CC(=O)O)CCCC1=O (stereo not drawn) | > 100 µM (inactive) | > 100 µM (inactive) | 0.475 µM (active) | > 100 µM (inactive) | > 100 µM (inactive) | > 100 µM (inactive) | > 100 µM (inactive) | > 100 µM (inactive) | > 100 µM (inactive) | > 100 µM (inactive) | > 100 µM (inactive) | > 100 µM (inactive) | > 100 µM (inactive) | > 100 µM (inactive) |  | > 100 µM (inactive) | > 100 µM (inactive) | > 100 µM (inactive) | > 100 µM (inactive) | > 100 µM (inactive)
Cc1ccc2oc3c(c(Br)c(Br)n3C)c(=O)c2c1 | 20 µM (inactive) | 16.7 µM (inactive) | > 100 µM (inactive) | 19.6 µM (inactive) | 19.5 µM (inactive) | 17.8 µM (inactive) | 91.8 µM (inactive) | > 100 µM (inactive) | 78.9 µM (inactive) | 18.5 µM (inactive) | 29.4 µM (inactive) | 19.6 µM (inactive) | 90.6 µM (inactive) | 19 µM (inactive) |  | 51.5 µM (inactive) |  | 46.2 µM (inactive) | 24.7 µM (inactive) | 16.9 µM (inactive)
COc1nc2c(c(=O)n1C)N[C@H]1[C@H](OC(C)=O)[C@@H](OC(C)=O)CO[C@H]1N2 | > 100 µM (inactive) | > 100 µM (inactive) | > 100 µM (inactive) | > 100 µM (inactive) |  | > 100 µM (inactive) | > 100 µM (inactive) | > 100 µM (inactive) | > 100 µM (inactive) | > 100 µM (inactive) | > 100 µM (inactive) | > 100 µM (inactive) | > 100 µM (inactive) | > 100 µM (inactive) |  | > 100 µM (inactive) | > 100 µM (inactive) | > 100 µM (inactive) | > 100 µM (inactive) | > 100 µM (inactive)
COc1ccc2c(c1)[C@@]13CCCC[C@H]1[C@@H](C2)N(C)CC3=O |  | 17.9 µM (inactive) | 19.7 µM (inactive) | 16.9 µM (inactive) | 17.5 µM (inactive) | 76.9 µM (inactive) | 21.5 µM (inactive) | 18.1 µM (inactive) | 21.8 µM (inactive) | 19.2 µM (inactive) | 17.2 µM (inactive) | 17.4 µM (inactive) | 18.3 µM (inactive) | 19 µM (inactive) | 16.8 µM (inactive) | 16.1 µM (inactive) |  | 18.3 µM (inactive) | 18.5 µM (inactive) | 15.3 µM (inactive)
COc1c(-c2nc3ccc(N4CCN(C)CC4)nc3[nH]2)cc(OC)c2c1nc(COC(C)=O)n2C |  | > 100 µM (inactive) | > 100 µM (inactive) | > 100 µM (inactive) | > 100 µM (inactive) | 90.2 µM (inactive) | 56.1 µM (inactive) | 39.4 µM (inactive) | 22.6 µM (inactive) | > 100 µM (inactive) | > 100 µM (inactive) | > 100 µM (inactive) | 65.3 µM (inactive) | < 0.01 µM (active) |  | 89.9 µM (inactive) |  | > 100 µM (inactive) | > 100 µM (inactive) | 19 µM (inactive)
Cc1ccc(NC(=O)/C(Cc2cc(=O)oc3cc(O)ccc23)=N\NC(C)(C)C)cc1C | > 100 µM (inactive) | > 100 µM (inactive) | > 100 µM (inactive) | > 100 µM (inactive) | > 100 µM (inactive) | > 100 µM (inactive) | > 100 µM (inactive) | > 100 µM (inactive) | > 100 µM (inactive) | > 100 µM (inactive) | > 100 µM (inactive) | > 100 µM (inactive) | > 100 µM (inactive) |  | 29.4 µM (inactive) | 68.9 µM (inactive) |  |  |  | > 100 µM (inactive)
CCN(CC)c1ccc(/C=c2\nc(-c3ccccc3)n3c2nc2ccccc23)cc1 | 1.48 µM (inactive) | 4.27 µM (inactive) | 1.63 µM (inactive) | 10.5 µM (inactive) | 20 µM (inactive) | 83.8 µM (inactive) | 1.89 µM (inactive) | 6.47 µM (inactive) | 26.8 µM (inactive) | 24.4 µM (inactive) | 26.5 µM (inactive) | 9.62 µM (inactive) | 14.6 µM (inactive) | 17 µM (inactive) | 2.72 µM (inactive) | 3.17 µM (inactive) |  |  | 13 µM (inactive) | 16.8 µM (inactive)
[N-]=[N+]=CC(=O)C1CCN(c2ccccc2)C1=O (stereo not drawn) | > 10 µM (inactive) | > 10 µM (inactive) | > 10 µM (inactive) | > 10 µM (inactive) | > 10 µM (inactive) | > 10 µM (inactive) | > 10 µM (inactive) | > 10 µM (inactive) | > 10 µM (inactive) | > 10 µM (inactive) | > 10 µM (inactive) | > 10 µM (inactive) | > 10 µM (inactive) | > 10 µM (inactive) | > 10 µM (inactive) | > 10 µM (inactive) |  |  | > 10 µM (inactive) | > 10 µM (inactive)
